Measured values from publication PMC12114952, “Design, Synthesis, Anticancer Evaluation and Molecular Docking of Pyrimidine, Pyrido[4,3-d]pyrimidine and 5,6,7,8-Tetrahydropyrido[3,4-d]pyrimidine Derivatives as Novel KRAS-G12D Inhibitors and PROTACs” (Pharmaceuticals, 2025).
Like-named read-outs stand apart in the source and are kept apart here.

What was measured:
[1] = tested on: tumor; set-up: method as in PMID 38197882; conditions: subcutaneous administration once a day for 22 days; cited from earlier work
[2] = tested on: AGS; conditions: Figure 1; cited from earlier work
[3] = tested on: AsPc-1; conditions: Figure 1, cited from earlier work
[4] = tested on: Panc1 (G12D); assay: CCK-8 cell proliferation assay, Panc1 cells; assay type: cell-based, human; conditions: for IC50: Homo sapiens, PANC-1, Panc1 cells, KRAS-G12D, CCK-8; for selectivity index (SI): Panc1 (G12D) over wild-type cells, fold
From the text: (§1) It has been reported that Panc1 is a KRAS-G12D-mutated human pancreatic cell and that A549 is a KRAS WT cell; meanwhile, HCT116 cells carry the KRAS-G13D mutation. Therefore, we used these cell lines to analyze the compounds’ anticancer activity and selectivity.

[5] = tested on: HCT116 (G13D); assay: CCK-8 cell proliferation assay, HCT116 cells; assay type: cell-based; conditions: Homo sapiens, HCT-116, KRAS-G13D
From the text: as §1

[6] = tested on: A549 (WT); assay: CCK-8 cell proliferation assay, A549 cells; assay type: cell-based; conditions: Homo sapiens, KRAS wild-type
From the text: as §1

[7] = tested on: AGS (G12D); assay: CCK-8 cell proliferation assay, AGS cells; assay type: cell-based; conditions: Homo sapiens, KRAS-G12D, antiproliferative
Experimental: as §1
(§2) After we obtained 26a and 26b, cell proliferation experiments were conducted using cell lines carrying KRAS-G12D mutations, and the results are shown in Table 2. […] In the future, more types of linkers can be designed to adjust the lipophilic–hydrophilic balance coefficient of the molecule to optimize its membrane permeability and protein degradation ability. In addition, it should be acknowledged that only two cancer cell lines were selected for testing in this experiment, which is insufficient to comprehensively evaluate these PROTACs. This is also one of the limitations of this experiment.

[8] = target: KRAS-G12D (Homo sapiens, UniProt P01116, G12D); assay: KRAS-G12D enzyme inhibition assay (GTPase activity assay)
[9] = tested on: ASPC-1; assay: Cell proliferation assay, ASPC-1 cells; assay type: cell-based; conditions: Homo sapiens, ASPC1, KRAS-G12D, antiproliferative
Experimental: as §2

[10] = tested on: Panc-1; conditions: Figure 1; cited from earlier work
[11] = tested on: CT26; set-up: method as in PMID 35276423; conditions: Figure 1; cited from earlier work
[12] = tested on: Panc 04.03; conditions: Figure 1; cited from earlier work
[13] = tested on: KC; set-up: method as in PMID 35075146; conditions: Figure 1; cited from earlier work
[14] = KRAS-G12D inhibition IC50, enzymatic inhibition

Chain of KRAS-G12D (P01116 1-188 isoform P01116-2 G12D): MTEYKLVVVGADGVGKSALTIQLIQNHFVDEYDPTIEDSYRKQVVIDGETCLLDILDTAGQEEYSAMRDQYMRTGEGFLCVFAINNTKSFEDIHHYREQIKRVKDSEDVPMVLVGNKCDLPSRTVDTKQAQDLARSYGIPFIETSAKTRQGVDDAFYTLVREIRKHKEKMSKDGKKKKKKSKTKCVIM

Row | IC50 [4] [µM] | IC50 [5] [µM] | IC50 [6] [µM] | Structure (SMILES) | other results
1 |  |  |  | CCc1c(F)ccc2cc(O)cc(-c3ncc4c(N5CC6CCC(C5)N6)nc(OC[C@@H]5CCCN5CCCCOCC(=O)N[C@H](C(=O)N5C[C@H](O)C[C@H]5C(=O)N[C@@H](C)c5ccc(-c6scnc6C)cc5)C(C)(C)C)nc4c3F)c12 [Compound 8o] | tumor inhibition rate [1]: 68.6%; IC50 [2]: 31 nM; IC50 [3]: 60 nM
2 | 6.17 ± 0.2 | 12.6 ± 1.01 | > 20 | CN1CCCN(c2nc3c(c(N4CC(N)C4)n2)CCN(C(=O)c2ccc(F)c4ccccc24)C3)CC1 [Compound 10a, (4-(3-Aminoazetidin-1-yl)-2-(4-methyl-1,4-diazepan-1-yl)-5,8-dihydropyrido[3,4-d]pyrimidin-7(6H)-yl)(4-fluoronaphthalen-1-yl)methanone] | 
3 | 5.87 ± 0.37 | 11.2 ± 0.94 | 7.89 ± 0.17 | CN1CCCN(c2nc3c(c(N4CCNCC4)n2)CCN(C(=O)c2ccc(F)c4ccccc24)C3)CC1 [Compound 10b, (4-Fluoronaphthalen-1-yl)(2-(4-methyl-1,4-diazepan-1-yl)-4-(piperazin-1-yl)-5,8-dihydropyrido[3,4-d]pyrimidin-7(6H)-yl)methanone] | 
4 | > 20 | > 20 | 7.48 ± 0.19 | CN1CCCN(c2nc3c(c(N4CCNCC4CO)n2)CCN(C(=O)c2ccc(F)c4ccccc24)C3)CC1 (centres unmarked) [Compound 10d, (4-Fluoronaphthalen-1-yl)(4-(2-(hydroxymethyl)piperazin-1-yl)-2-(4-methyl-1,4-diazepan-1-yl)-5,8-dihydropyrido[3,4-d]pyrimidin-7(6H)-yl)methanone] | 
5 | > 20 | 11.9 ± 1.59 | 12.8 ± 1.84 | CN1CCCN(c2nc3c(c(N4CCNCC4(C)C)n2)CCN(C(=O)c2ccc(F)c4ccccc24)C3)CC1 [Compound 10e, (4-(2,2-Dimethylpiperazin-1-yl)-2-(4-methyl-1,4-diazepan-1-yl)-5,8-dihydropyrido[3,4-d]pyrimidin-7(6H)-yl)(4-fluoronaphthalen-1-yl)methanone] | 
6 | 3.48 ± 0.22 | 10.1 ± 0.31 | > 20 | CN1CCCN(c2nc3c(c(N4CCCN(C)CC4)n2)CCN(C(=O)c2ccc(F)c4ccccc24)C3)CC1 [Compound 10f, (2,4-Bis(4-methyl-1,4-diazepan-1-yl)-5,8-dihydropyrido[3,4-d]pyrimidin-7(6H)-yl)(4-fluoronaphthalen-1-yl)methanone] | selectivity index (SI) [4]: 5.7
7 | 5.1 ± 0.32 | 7.12 ± 0.45 | 12.9 ± 0.38 | O=C(c1ccc(F)c2ccccc12)N1CCc2c(nc(N3CCN4CCC3CC4)nc2N2CCN3CCC2CC3)C1 [Compound 10g, (2,4-Di(1,4-diazabicyclo[3.2.2]nonan-4-yl)-5,8-dihydropyrido[3,4-d]pyrimidin-7(6H)-yl)(4-fluoronaphthalen-1-yl)methanone] | 
8 | > 20 | > 20 | > 20 | CN1CCCN(c2nc3c(c(N4CCNCC4CO)n2)CCN(Cc2ccccc2)C3)CC1 (centres unmarked) [Compound 10h, (1-(7-Benzyl-2-(4-methyl-1,4-diazepan-1-yl)-5,6,7,8-tetrahydropyrido [3,4-d]pyrimidin-4-yl)piperazin-2-yl)methanol] | 
9 | 5.96 ± 0.64 | 14.5 ± 1.22 | > 20 | CCN1CCC[C@H]1CNc1nc(NC(=O)c2cccc3ccccc23)cc(N2CCNCC2)n1 [Compound 10j, (S)-N-(2-(((1-Ethylpyrrolidin-2-yl)methyl)amino)-6-(piperazin-1-yl)pyrimidin-4-yl)-1-naphthamide] | 
10 |  |  |  | C#Cc1c(F)ccc2cc(O)cc(-c3ncc4c(N5C[C@H]6CC[C@@H](C5)N6)nc(N5CCCN(CCOCCNc6cccc7c6C(=O)N(C6CCC(=O)NC6=O)C7=O)CC5)nc4c3F)c12 (stereo partly drawn) [Compound 26a, 4-((2-(2-(4-(4-((1R,5S)-3,8-Diazabicyclo[3.2.1]octan-3-yl)-7-(8-ethynyl-7-fluoro-3-hydroxynaphthalen-1-yl)-8-fluoropyrido[4,3-d]pyrimidin-2-yl)-1,4-diazepan-1-yl)ethoxy)ethyl)amino)-2-(2,6-dioxopiperidin-3-yl)isoindoline-1,3-dione] | IC50 [7]: ~3 µM; IC50 [9]: > 10 µM
11 |  |  |  | C#Cc1c(F)ccc2cc(O)cc(-c3ncc4c(N5C[C@H]6CC[C@@H](C5)N6)nc(N5CCCN(CCCCCC(=O)N[C@H](C(=O)N6C[C@H](O)C[C@H]6C(=O)N[C@@H](C)c6ccc(-c7scnc7C)cc6)C(C)(C)C)CC5)nc4c3F)c12 [Compound 26b, (2S,4R)-1-((S)-2-(6-(4-(4-((1R,5S)-3,8-Diazabicyclo[3.2.1]octan-3-yl)-7-(8-ethynyl-7-fluoro-3-hydroxynaphthalen-1-yl)-8-fluoropyrido[4,3-d]pyrimidin-2-yl)-1,4-diazepan-1-yl)hexanamido)-3,3-dimethylbutanoyl)-4-hydroxy-N-((S)-1-(4-(4-methylthiazol-5-yl)phenyl)ethyl)pyrrolidine-2-carboxamide] | IC50 [9]: 5.09 ± 0.89 µM
12 |  |  |  | N#Cc1c(N)sc2c(F)ccc(-c3c(C(F)(F)F)cc4c(N5CC6CCC(C5)N6)nc(OC[C@@]56CCCN5C[C@H](F)C6)nc4c3F)c12 [ERAS-5024] | IC50 ([3]; 3D, CTG): 4 nM
13 |  |  |  | COc1cccc(C(F)(F)F)c1-c1cc2c(N3CC4CCC(C3)N4)ncnc2s1 [KD-8] | IC50 [10]: 2300 nM; IC50 [11]: 2000 nM
14 | 0.39 ± 0.05 | 12.6 ± 0.47 | 12.7 ± 0.98 | C#Cc1c(F)ccc2cc(O)cc(-c3ncc4c(N5CC6CCC(C5)N6)nc(OC[C@@]56CCCN5C[C@H](F)C6)nc4c3F)c12 [MRTX1133, reference compound] | IC50 [7]: 1.46 ± 0.18 µM; IC50 [9]: < 0.1 µM; tumor inhibition rate [1]: 89.1%; IC50 [2]: 6 nM; IC50 [12]: 10 nM
15 |  |  |  | Cc1cccc2cccc(N3CCc4c(nc(OC[C@@H]5CCCN5C)nc4N4CC5CCC(C4)N5)C3)c12 [TH-Z835] | IC50 [10]: < 2000 nM; IC50 [13]: < 500 nM

Row | Structure (SMILES) | IC50 [4] [µM] | IC50 [5] [µM] | IC50 [6] [µM] | other results
16 | CN1CCCN(c2nc3c(c(N4[C@@H]5CC[C@H]4CNC5)n2)CCN(C(=O)c2ccc(F)c4ccccc24)C3)CC1 [Compound 10c, (4-((1R,5S)-3,8-Diazabicyclo[3.2.1]octan-8-yl)-2-(4-methyl-1,4-diazepan-1-yl)-5,8-dihydropyrido[3,4-d]pyrimidin-7(6H)-yl)(4-fluoronaphthalen-1-yl)methanone] | 1.4 ± 0.19 | 5.13 ± 0.4 | 6.88 ± 0.19 | IC50 [7]: 3.4 ± 0.25 µM; selectivity index (SI) [4]: 4.9; IC50 [8, 14]: > 10000 nM
17 | Cc1cccc2cccc(N3CCc4c(nc(N5CCCN(C)CC5)nc4N4C[C@H]5CC[C@@H](C4)N5)C3)c12 [Compound 10i, 4-((1R,5S)-3,8-Diazabicyclo[3.2.1]octan-3-yl)-2-(4-methyl-1,4-diazepan-1-yl)-7-(8-methylnaphthalen-1-yl)-5,6,7,8-tetrahydropyrido[3,4-d]pyrimidine] | 3.92 ± 0.58 | 4.51 ± 0.21 | 5.5 ± 1.35 | 
18 | C#Cc1c(F)ccc2cc(O)cc(-c3ncc4c(N5C[C@H]6CC[C@@H](C5)N6)nc(N5CCCN(C)CC5)nc4c3F)c12 [Compound 10k, 4-(4-((1R,5S)-3,8-Diazabicyclo[3.2.1]octan-3-yl)-8-fluoro-2-(4-methyl-1,4-diazepan-1-yl)pyrido[4,3-d]pyrimidin-7-yl)-5-ethynyl-6-fluoronaphthalen-2-ol] | 11.5 ± 0.41 | 7.87 ± 0.16 | 14.2 ± 2.15 | IC50 [7]: 2.22 ± 0.53 µM; IC50 [8, 14]: 9 nM; IC50 ([8]; KRAS-G12D inhibitory activity IC50 (nM), Table S1): 9.3 nM
